From patent publication US5834288A, “KDN-specific deminoneuraminidase from Sphingobacterium multivorum” (Seikagaku Corporation, priority 1994, dated 1998)
“Also recorded” adds a separate entry of the source. Read-outs that look alike come from different tables or passages of the source.

Assays:
[1] = test system: enzyme of the present invention (KDNase); experiment: Substrate specificity: cleavage of ketosidic linkage, detected by thin layer chromatography; format: biochemical, Sphingobacterium mOL12-4s; parameters: key to Presence or absence of cleavage: Those in which KDN, Neu5Ac, or Neu5Gc was liberated are indicated by "+"; those in which KDN, Neu5Ac, or Neu5Gc was not liberated at all are indicated by "-"; conditions: for Presence or absence of cleavage: substrate corresponding to 5 μg KDN, Neu5Ac or Neu5Gc, enzyme 80 milliunits, 25° C., 20 hours, pH 6.0, 0.1M NaCl
Experimental: The reactivity of the enzyme of the present invention was investigated for various KDN-containing complex carbohydrates and carbohydrates and sialic acid-containing complex carbohydrates and carbohydrates.
Each of the foregoing complex carbohydrates or carbohydrates containing KDN or sialic acid, which corresponded to 5 μg of KDN or N-acetylneuraminicacid (Neu5Ac) or N-glycolylneuraminic acid (Neu5Gc), was allowed to coexist with the enzyme of the present invention (80 milliunits) at 25° C. for 20 hours in 10 μl of 0.1M Tris-acetate buffer (pH 6.0) containing 0.1M NaCl.
The reaction solution was spotted on a plate for silica gel thin layer chromatography (produced by Merck), and developed for 7 hours with 1-propanol: 25% aqueous ammonia: water=6:1:2.5 (volume ratio). After the development, the plate was dried, on which 10% sulfuric acid ethanol solution was sprayed. The plate was heated at 120° C. to cause color development for the complex carbohydrates or carbohydrates and liberated KDN, Neu5Ac, or Neu5Gc. A control was provided, in which the reaction was performed without addition of the enzyme. Those in which KDN, Neu5Ac, or Neu5Gc was liberated are indicated by "+", and those in which KDN, Neu5Ac, or Neu5Gc was not liberated at all are indicated by "-".

[2] = test system: enzyme of the present invention (KDNase); experiment: Inhibition and activation of the enzyme, 4-MU-KDN method; format: biochemical, Sphingobacterium mOL12-4s; conditions: for effect on the activity of the enzyme: added at 1 mM
Experimental: Specifically, 1.4 nmol of 4-MU-KDN was added to an enzyme solution prepared by dissolving the enzyme in 20 μl of 0.1M Tris-acetate buffer (pH 6.0)/0.1M NaCl to perform a reaction at 25° C. for 30 minutes. After the reaction, an aliquot of the reaction solution (20 μl) was mixed with 2.5 ml of 85 mM glycine-carbonate buffer (pH 9.3) to measure the fluorescent strength (exciting wavelength: 365 nm, measuring wavelength: 450 nm). For the measurement of the fluorescent strength, reference was made to Biochemistry, Vol. 18, No. 13, pp. 2783-2787. A fluorescent strength, which was obtained when the reaction was performed in the same manner as described above except that the enzyme was not added, was used as control. An amount of the enzyme, which hydrolyzed 1 nmol of 4-MU-KDN per 1 minute at 25° C., was defined as 1 unit.
In order to investigate influences of, for example, inorganic ions and EDTA (ethylenediaminetetraacetic acid) on the activity of the enzyme of the present invention, these compounds were added to the reaction solution to perform the enzyme reaction in accordance with the 4-MU-KDN method.
The influence of the ionic strength on the enzyme of the present invention was investigated.
2,3-Dehydro-2-deoxy-N-acetylneuraminic acid is a specific inhibitor for known sialidase which cleaves the ketosidic linkage formed by N-acylneuraminic acid.

[3] = test system: Sphingobacterium mOL12-4s; experiment: Induction of KDNase in Sphingobacterium mOL12-4s; conditions: for Number of cells: 0.1% (w/v) added substance in M9 liquid medium, 6.1×10^10 cells inoculated; for Number of cells / KDNase activity per cells / Number of cells, ratio to before addition (value in []) / KDNase activity: 25° C., 24 hours; for Number of cells, ratio to before addition (value in []): before addition = 1; for KDNase activity: supernatant of disrupted cells; for fold induction at 1000 µg/mL: 24 h
Experimental: Bacterial cells (4.0×10^8) of Sphingobacterium mOL12-4s were inoculated into 40 ml of M9 liquid medium containing 1% (w/v) casein hydrolysate (casamino acid, produced by Gibco) and 1% (w/v) glucose (Glc), and cultivated at 25° C. for 44 hours. Microbial cells (bacterial cells) at the growth phase were collected, and washed twice with M9 liquid medium. The microbial cells (6.1×10^10 cells) were inoculated into 2.0 ml of M9 liquid medium containing 0.1% (w/v) crude KDN-OS, KDN-OS, KDN, Neu5Ac, acid hydrolysate of colominic acid (oligo-Neu5Ac; Kitazume, S. et al., Anal. Biochem., 202, 25-34 (1992)), or Glc, and incubated at 25° C. for 24 hours to measure the number of growable cells and the KDNase activity. The number of cells was determined by diluting each incubated cell cultivation liquid to inoculate an obtained diluted solution into an LB agar medium plate, and counting a number of grown colonies (Kitajima, K. et al., J. Biol. Chem., 269, 21415-21419). In order to measure the KDNase activity of the cells, the cells were collected by means of centrifugation at 5,000 rpm or 1,500× g for 10 minutes. The collected cells were suspended in 0.5 ml of 100 mM Tris-acetate buffer (pH 6.0) containing 100 mM NaCl, and disrupted by means of ultrasonication (50 watts, 1 minute). The disrupted preparation was centrifuged at 10,000 rpm or 6,000× g for 10 minutes to subsequently obtain a supernatant for which the KDNase activity was measured. The numerical value in [] in Table 1 indicates a ratio provided that the activity before the addition is regarded as 1.

[4] = test system: enzyme of the present invention (KDNase); experiment: Measurement of Michaelis constant and Vmax with 4-MU-KDN as substrate; format: biochemical, Sphingobacterium mOL12-4s; conditions: 25° C.; for Vmax: pH 6.0
Experimental: The Michaelis constant (Km) and the maximum enzyme reaction velocity (Vmax) were determined on condition that 4-methylumbelliferyl KDN (4-MU-KDN) was used as a substrate for the enzyme of the present invention. The enzyme (32 milliunits) and the substrate (4-MU-KDN, 6.7 μM) were reacted at 25° C. in 216 μl of a reaction solution (0.1M Tris-acetate buffer (pH 6.0)/0.1M NaCl containing 0.1 mg/ml of bovine serum albumin). As a result, 4-methylumbelliferone (4-MU) was liberated linearly within 1 hour.
At this enzyme concentration, initial reaction velocities were measured by performing the reaction at 25° C. for 30 minutes in the same reaction solution as described above while variously changing the concentration of 4-MU-KDN in a range of 21 to 167 μM. A Lineweaver-Burkplot was obtained, and thus the Michaelis constant was calculated.

[5] = read-out: KDNase activity per cells, ratio to before addition (value in [])
[6] = read-out: KDNase activity, ratio to before addition (value in [])

fetal bovine serum fetuin: fetal bovine serum fetuin purchased from Sigma
Presence or absence of cleavage [1]: -

[Ca+2] [calcium ion]
effect on the activity of the enzyme [2]: not affected

CC(=O)N[C@H]1[C@H]([C@H](O)[C@H](O)CO)OC(C(=O)O)=C[C@@H]1O [2,3-dehydro-2-deoxy-N-acetylneuraminic acid]
inhibition of the enzyme ([2]; concentration not given): not inhibited

O=C(O)CN(CCN(CC(=O)O)CC(=O)O)CC(=O)O [EDTA, ethylenediaminetetraacetic acid]
effect on the activity of the enzyme [2]: not affected

CC(=O)N[C@H]1[C@H]([C@H](O)[C@H](O)CO)OC(O)(C(=O)O)C[C@@H]1O (stereo partly drawn) [Neu5Ac, N-acetylneuraminic acid]
Number of cells [3]: 2.5 × 10^10 | KDNase activity per cells ([3]; 0.1% (w/v)): 6.0 milliunit/10^10 cells | Number of cells, ratio to before addition (value in []) ([3]; 0.1% (w/v)): 0.41 | KDNase activity ([3]; 0.1% (w/v)): 15 milliunit | fold induction at 1000 µg/mL [3, 5]: 1.8 | fold induction at 1000 µg/mL [3, 6]: 0.75

O=C(O)C1(O)CC(O)C(O)C(C(O)C(CO)OC2(C(=O)O)CC(O)C(O)C(C(O)C(O)CO)O2)O1 (stereo not drawn) [KDN dimer, KDNα2→8KDN]
Presence or absence of cleavage [1]: +

N-Acetylneuraminic acid lactose [Neu5Ac lactose]
Presence or absence of cleavage [1]: -

O=C(O)C1(O)C[C@H](O)[C@@H](O)[C@H]([C@H](O)[C@H](O)CO)O1 (stereo partly drawn) [KDN, 3-deoxy-D-glycero-D-galacto-nonulosonic acid]
inhibition of the enzyme ([2]; 3 mM): inhibited | inhibition of the enzyme ([2]; concentration not given): inhibited | induction of KDNase (in words) ([3]; 0.1% (w/v)): induced KDNase | Number of cells [3]: 3.6 × 10^10 | KDNase activity per cells ([3]; 0.1% (w/v)): 11 milliunit/10^10 cells | Number of cells, ratio to before addition (value in []) ([3]; 0.1% (w/v)): 0.59 | KDNase activity ([3]; 0.1% (w/v)): 38 milliunit | fold induction at 1000 µg/mL [3, 5]: 3.3 | fold induction at 1000 µg/mL [3, 6]: 1.9

CC(=O)NC1C(O)CC(Oc2ccc3c(C)cc(=O)oc3c2)(C(=O)O)OC1C(O)C(O)CO (stereo not drawn) [4-MU-Neu5Ac, 4-Methylumbelliferyl Neu5Ac]
Presence or absence of cleavage [1]: -

[Mn+2] [manganese ion]
effect on the activity of the enzyme [2]: not affected

[Mg+2] [magnesium ion]
effect on the activity of the enzyme [2]: not affected

Cc1cc(=O)oc2cc(OC3(C(=O)O)C[C@H](O)[C@@H](O)[C@H]([C@H](O)[C@H](O)CO)O3)ccc12 (stereo partly drawn) [4-MU-KDN, 4-methylumbelliferyl KDN]
Vmax [4]: 7.4 mM/min/mg protein | Km ([4]; pH 6.0, 0.1M NaCl, 0.1 mg/ml BSA, Lineweaver-Burk plot, 21 to 167 μM substrate): 19 µM | Vmax ([4]; enzyme 32 milliunits in 216 μl): 0.19 µM/min | action of the enzyme on the ketosidic linkage (in words) [1]: acts on | action of the enzyme on the ketosidic linkage (in words) ([1]; listed as 4-methylumbelliferyl KDN): can also act on | Presence or absence of cleavage [1]: +

human transferrin: human transferrin purchased from Sigma
Presence or absence of cleavage [1]: -

[Cl-].[Na+] [NaCl]
enzyme activity at low ionic strength ([2]; 50 mM or less): extremely low | concentration giving maximum enzyme activity (ionic strength) ([2]; FIG. 10): 300 mM

colominic acid
Presence or absence of cleavage [1]: -

CC(=O)NC(CO)C(OC1OC(CO)C(O)C(O)C1O)C(O)C(O)COC1(C(=O)O)CC(O)C(NC(C)=O)C(C(O)C(O)CO)O1 (stereo not drawn) [Neu5Acα2→6(Galβ1→3)GalNAcol]
Presence or absence of cleavage [1]: -

C[C@H](CCC(=O)O)[C@H]1CC[C@H]2[C@@H]3[C@H](O)C[C@@H]4C[C@H](O)CC[C@]4(C)[C@H]3C[C@H](O)[C@]12C [sodium cholate]
enzyme activity maintained ([2]; 0.1%, 30 min): about 90% | enzyme activity in the presence of the additive ([2]; 0.5%): substantially disappeared; also recorded: disappears

CC(=O)NC1C(O)CC(OC(CO)C(O)C2OC(O)(C(=O)O)CC(O)C2NC(C)=O)(C(=O)O)OC1C(O)C(O)CO (stereo not drawn) [Neu5Ac dimer, N-acetylneuraminic acid (Neu5Ac) dimer]
Presence or absence of cleavage [1]: -

CC(=O)N[C@H]1[C@H]([C@H](O)[C@H](O)CO)OC(O)(C(=O)O)C[C@@H]1O (stereo partly drawn) [free sialic acid, sialic acid]
inhibition of the enzyme ([2]; concentration not given): not inhibited

O=C(CO)NC1C(O)CC(OC(CO)C(O)C2OC(O)(C(=O)O)CC(O)C2NC(=O)CO)(C(=O)O)OC1C(O)C(O)CO (stereo not drawn) [Neu5Gc dimer, N-glycolylneuraminic acid (Neu5Gc) dimer]
Presence or absence of cleavage [1]: -

Triton X-100
inhibition of the enzyme ([2]; concentration not given): not inhibited; also recorded: does not inhibit

KDNα2→3Galβ1→4Glcβ1→Cer [KDN-containing ganglioside GM3]
Presence or absence of cleavage [1]: +

O=C[C@H](O)[C@@H](O)[C@H](O)[C@H](O)CO [Glc, glucose]
Number of cells [3]: 1.7 × 10^12 | KDNase activity per cells ([3]; 0.1% (w/v)): 0.47 milliunit/10^10 cells | Number of cells, ratio to before addition (value in []) ([3]; 0.1% (w/v)): 28 | KDNase activity ([3]; 0.1% (w/v)): 80 milliunit | fold induction at 1000 µg/mL [3, 5]: 0.14 | fold induction at 1000 µg/mL [3, 6]: 4
